Experimental data taken from patent US20070117840A1, “Receptor antagonist” (priority 2004, published 2007).

Columns and labels:
[1] = molecular target: T1, human-type OT7T022 (Homo sapiens, UniProt Q9GZQ6); experiment: Binding inhibiting activity using human-type OT7T022-expressing CHO cell (125I-Y-RFRP-3); conditions: human-type OT7T022-expressing CHO cell membrane fraction, 125I-labeled Y-RFRP-3 100 pM; read-out: IC50 value (binding inhibiting rate)
T1 construct: expressed in transfected cells; host or cells: CHO cells (membrane fraction)
T1 sequence (Q9GZQ6 whole entry): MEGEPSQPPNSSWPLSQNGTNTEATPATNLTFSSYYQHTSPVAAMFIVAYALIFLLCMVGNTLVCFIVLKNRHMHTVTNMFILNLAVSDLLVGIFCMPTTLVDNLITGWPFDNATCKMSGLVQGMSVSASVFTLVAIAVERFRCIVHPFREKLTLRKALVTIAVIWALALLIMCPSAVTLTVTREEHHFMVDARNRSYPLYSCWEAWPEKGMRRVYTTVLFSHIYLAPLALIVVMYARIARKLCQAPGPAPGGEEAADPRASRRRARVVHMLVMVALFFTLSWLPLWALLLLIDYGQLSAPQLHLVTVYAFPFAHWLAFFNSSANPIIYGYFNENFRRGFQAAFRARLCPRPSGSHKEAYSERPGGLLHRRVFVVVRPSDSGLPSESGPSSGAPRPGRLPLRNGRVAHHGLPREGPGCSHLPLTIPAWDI
Description: Assessment of Binding Inhibiting Activity of Test Compound Using Human-Type OT7T022-Expressing CHO Cell
(1) Preparation of Iodine-Labeled Entity of Human-Type RFRP-3 (Y-RFRP-3)
A part thereof was 1/100 diluted, radioactivity was measured with a γ-counter, and the remaining authentic product was distributed, which was stored at −30° C.
(2) Assessment of Binding Inhibiting Activity
For measuring non-specific binding, non-labeled Y-RFRP-3 was further added to […]. Then, a membrane fraction was transferred to a unifilter GF/C (Perkin Elmer) by filtering the reaction solution using a cell harvester (Perkin Elmer), and this was washed with a cooled 50 mM Tris buffer (pH 7.5) five times. The filter was dried, Microsinti (Packard) was added to the filter, and radioactivity was measured with Topcount (Packard).
A binding inhibiting rate (IC50 value) of a test compound is shown in [Table 1].

[2] = molecular target: T2, rat-type OT7T022 (Rattus norvegicus, UniProt Q9EP86); experiment: Binding inhibiting activity using rat-type OT7T022-expressing CHO cell membrane fraction; conditions: iodine-labeled Y-RFRP-3 100 pM
T2 construct: expressed in transfected cells; host or cells: CHO cells (membrane fraction)
T2 sequence (Q9EP86 whole entry): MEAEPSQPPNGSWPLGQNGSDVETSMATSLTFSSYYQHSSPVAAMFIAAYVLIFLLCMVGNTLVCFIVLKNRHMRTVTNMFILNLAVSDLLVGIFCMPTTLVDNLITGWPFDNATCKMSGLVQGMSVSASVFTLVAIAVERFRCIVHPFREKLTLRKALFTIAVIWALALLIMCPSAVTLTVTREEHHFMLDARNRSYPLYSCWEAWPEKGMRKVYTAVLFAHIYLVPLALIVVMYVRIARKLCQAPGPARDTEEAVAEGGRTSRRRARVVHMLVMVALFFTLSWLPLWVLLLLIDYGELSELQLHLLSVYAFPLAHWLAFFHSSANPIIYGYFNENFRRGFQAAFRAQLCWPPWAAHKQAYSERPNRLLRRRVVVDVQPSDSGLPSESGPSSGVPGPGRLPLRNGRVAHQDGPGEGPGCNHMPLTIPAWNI
Description: Assessment of Binding Inhibiting Activity of Test Compound Using Rat-Type OT7T022-Expressing CHO Cell
(1) Preparation of Rat-Type OT7T022-Expressing CHO Cell Membrane Fraction
A flask in which a rat-type OT7T022-expressing CHO cell had been cultured was washed with 5 mM EDTA/PBS, cells were peeled with 5 mM EDTA/PBS, and cells were recovered by centrifugation, suspended in 25 mL of a buffer for preparing a membrane fraction (50 mM Tris-HCl, pH 7.5, 5 mM EDTA, 0.5 mM PMSF (manufactured by Wako Pure Chemical Industries, Ltd.), […] leupeptin (manufactured by Peptide Laboratory), 0.1 μg/mL pepstatin A (manufactured by Peptide Laboratory), 4 μg/mL E-64 (manufactured by Peptide Laboratory)), and homogenized on an ice using Polytron (12,000 rpm, 15 seconds×3 times). This was centrifuged in a high speed cooling centrifuge at 4° C. and 1,000 g for 10 minutes, and the supernatant was recovered. 25 mL of a buffer for preparing a membrane fraction was added to precipitates, and the supernatant was recovered by the same procedure. […] The pellet was suspended in a small amount of a buffer for preparing a membrane fraction, this was suspended using a Teflon (registered trade mark) homogenizer, a protein amount was measured using a part, and the remaining was dispensed, and stored at −80° C. […]

[3] = molecular target: T1, human-type OT7T022; experiment: Antagonist activity in cAMP production inhibiting test system using human-type OT7T022-expressing CHO cell; type: cell-based; conditions: intracellular cAMP, agonist human-type RFRP-3-8 20 nM, forskolin 2 μM
Description: Test of Antagonist Activity of Compound in cAMP Production Inhibiting Test System Using Human-Type OT7T022-Expressing CHO Cell
Antagonist activity of a test compound was measured in an intracellular cAMP production inhibiting test system of a CHO cell expressing human-type OT7T022. In the cAMP production inhibiting test, as an assay buffer, a Hanks' balanced salt solution (Gibco) to which 20 mM HEPES pH 7.4, 0.1% bovine serum albumin, and 0.2 mM 3-isobutyl-1-methylxanthine (Sigma) had been added, was used. A sample compound was adjusted with an assay buffer so that the final concentration became 10^−5M, 10^−6M, 10^−7M, 10^−8M, or 10^−10M. […] A human-type OT7T022-expressing CHO cell was passaged on a 96-well plate at 4×10^4/well, and cultured at 37° C., 5% CO2 and 95% air for one day. The plate which had been cultured for one day was washed with an assay buffer (150 μl) two times and, after 30 minutes, this was cultured for 30 minutes at 37° C. and 100% air. After washed with an assay buffer (150 μl) two times, 50 μl of a sample compound solution and, then, 50 μl of an agonist+forskolin solution were added, the mixture was stirred well and, after 30 minutes, this was cultured for 30 minutes at 37° C. and 100% air. An intracellular cAMP amount was measured according to a protocol of the present kit using cAMP-Screen™ system (ABI). […]

[4] = Blood glucose concentration after intravenous administration of RFRP-1 to rat; type: in vivo, Wistar male rat; conditions: 10 nmol/kg, 5 minutes and 15 minutes after administration, compared with physiological saline group
Text: (§1) In FIG. 1, (-∘-) represents a blood glucose concentration of a physiological saline administration group, (-▴-) represents a blood glucose concentration of an RFRP-1 1 nmol/kg administration group, and (-▪-) represents a blood concentration of an RFRP-1 10 nmol/kg administration group.
Blood Glucose Concentration Increasing Activity of RFRP
As RFRP, human RFRP-1 (37 amino acids) consisting of an amino acid sequence of 56th (Ser) to 92nd (Phe) of an amino acid sequence represented by SEQ ID No.: 3. Hereinafter, this peptide is abbreviated as RFRP-1.
In order to study influence of peripheral administration of RFRP-1 on a blood glucose concentration, operation for collecting blood under free moving was performed. A mature Wistar male rat (weight 310 to 350 g at operation) was anesthetized with 50 mg/kg of pentobarbital by intraperitoneal administration. The rat was fixed on an anatomic pad in a supine position, and a left jugular vein was exposed. […]
Overnight after operation, 300 μl of blood was collected using a tuberculin injection syringe having a dose of 1 ml and a 25 gauge injection needle (both Telmo) before administration of RFRP-1. […] A blood glucose concentration was measured using Fuji Drichem 3500 (FUJIFILM).

[5] = Blood glucagon and insulin concentration after intravenous administration of RFRP-1 to rat; type: in vivo, Wistar male rat
Text: In FIG. 2, (-∘-) represents a blood glucagon concentration of a physiological saline administration group, (-▴-) represents a blood glucagon concentration of an RFRP-1 1 nmol/kg administration group, and (-▪-) represents a blood glucagon concentration of an RFRP-1 10 nmol/kg administration group.
as §1, with “FIG. 3,” for “FIG. 1,”, “blood insulin” for “blood glucose”, “blood insulin” for “blood”, “group. A value indicates mean±[…] (mean±SE) (n=4).” for “group.”
Pancreatic Glucagon Secretion Promoting Activity of RFRP
In order to study mechanism of blood glucose concentration increasing activity of RFRP-1, influence of RFRP-1 on a blood concentration of glucagon and insulin which are known as a hormone imparting a variation to a blood glucose concentration was studied. A mature Wistar male rat (weight 310 to 350 g at operation) was operated for collecting blood under free moving. Overnight after operation, 300 μl of a blood was collected using a tuberculin injection syringe having a dose of 1 ml and a 25 gauge injection needle (both Telmo) before administration of RFRP-1. […]

Molecule	IC50 [1] [µM]	IC50 [2] [µM]	IC50 [3] [µM]	blood glucose concentration [4]	blood insulin concentration [5]
CC(C)(C)Cn1c(C(=O)OC(C)(C)C)c(O)c2ccc(F)cc2c1=O [Example 1, tert-Butyl 7-fluoro-4-hydroxy-2-neopentyl-1-oxo-1,2-dihydro-3-isoquinolinecarboxylate]	< 1	< 1	< 5		
CC(C)(C)Cn1c(C(=O)OC(C)(C)C)c(O)c2cc(Cl)c(Cl)cc2c1=O [Example 3, tert-Butyl 6,7-dichloro-4-hydroxy-2-neopentyl-1-oxo-1,2-dihydro-3-isoquinolinecarboxylate]	< 1	< 1	< 5		
CCCCOc1c(C(=O)OC(C)(C)C)n(CC(C)(C)C)c(=O)c2ccc(F)cc12 [Reference Example 12, tert-Butyl 4-butoxy-6-fluoro-2-neopentyl-1-oxo-1,2-dihydro-3-isoquinolinecarboxylate]	< 1				
RFRP-1: human RFRP-1 (37 amino acids) consisting of 56th (Ser) to 92nd (Phe) of the amino acid sequence of SEQ ID No.: 3 (SLNFEELKDWGPKNVIKMSTPAVNKMPHSFANLPLRF; Human)				significant (p<0.05, n=4) activity of increasing a blood glucose concentration	not recognized
